Source: patent publication US7446119B2, “Miticidal triazolidine derivatives” (Crompton Corporation, priority 2005, dated 2008)

How the values were obtained:
Tetranychus urticae Koch [1] = assay: Mite ovicide test (MIOV); format: in vivo; conditions: mite eggs on cowpea leaves, sprayed to run off with 100 ppm, examined nine days after treatment, based on unhatched eggs
Method: The remaining examples relate to the miticidal use of the compounds of this invention. In all these examples, a stock solution for the compounds was prepared at 3000 ppm by dissolving each compound to be tested in acetone with 0.67% Tween (v/v), a wetting agent. […] For each example that follows, this stock solution was used and the specificized dilutions made. All the tests discussed below, which involved treatment with compounds of this invention were always repeated with controls, in which the active compound was not provided, to permit a comparison upon which the percent control was calculated. One day before treatment of cowpea primary leaves with the test solutions, rings of tree tanglefoot were applied to each of two cowpea primary leaves, one from each of two plants in a pot. For the mite ovicide tests, groups of adult mites (Tetranychus urticae Koch) were transferred into the rings one day before treatment and the females were allowed to deposit eggs until one hour before treatment, at which point all the adults were removed. The plants were then sprayed to run off with a 100 ppm solution diluted from the 3000 ppm stock solution. Nine days following treatment the ovicide rings were examined for unhatched eggs and living immature mites. The percent control was estimated based on the number of unhatched eggs.

Tetranychus urticae Koch [2] = assay: Mite adulticide pre-infection test (MI); format: in vivo; conditions: cowpea plants sprayed to run off with 300 ppm, adult mites transferred one day after treatment, examined five days later
Method: The remaining examples relate to the miticidal use of the compounds of this invention. In all these examples, a stock solution for the compounds was prepared at 3000 ppm by dissolving each compound to be tested in acetone with 0.67% Tween (v/v), a wetting agent. […] For each example that follows, this stock solution was used and the specificized dilutions made. All the tests discussed below, which involved treatment with compounds of this invention were always repeated with controls, in which the active compound was not provided, to permit a comparison upon which the percent control was calculated. One day before treatment of cowpea primary leaves with the test solutions, rings of tree tanglefoot were applied to each of two cowpea primary leaves, one from each of two plants in a pot. For the mite adulticide pre-infection tests, plants were sprayed to run off with a 300 ppm solution diluted from the 3000 ppm stock solution. One day following treatment of the plants with the test solution, groups of approximately 25 adult mites were transferred into the rings. Five days later these rings were examined for live mites remaining on the leaves. The percent control was estimated based on the number of mites surviving on the control plants.

## COc1ccc(-c2ccccc2)cc1N1CN(C)CN1C(=O)OC(C)C [Compound 1, 1-methylethyl 2-(4-methoxy-[1,1′-biphenyl]-3-yl)-4-methyl-1,2,4-triazolidine-1-carboxylate]
Tetranychus urticae Koch [1]
  Percent Control MIOV: 100%
Tetranychus urticae Koch [2]
  Percent Control MI: 100%
